Assay: Safety and tolerability (TEAEs, PCSAs, laboratory tests) in phase 1 study Parts 1a, 1b, 2
Type: in vivo, healthy adult participants (human)
Details: for ALT increase: Part 1b 10 mg
Description: This single ascending dose (SAD) study consisted of three parts: Part 1a, which is a phase 1, randomized, placebo-controlled, double-blind, sequential ascending single dose study; Part 1b, which is phase 1, open-label, sequential single dose study; and Part 2, which is an ascending 14-day repeated oral dose study.
Part 1a evaluated 4 sequential ascending dose levels of Compound 1 under fasted conditions: 10 mg, 20 mg, 30 mg, and 40 mg, each dose per cohort. Participants were fasted overnight for at least 8 hours before the morning dose and 2 hours after dosing.
Part 1b is an open-label study with two single dose levels of Compound 1, previously tested for safety/tolerability in SAD cohorts of Part 1a, were selected (10 mg and 40 mg) and sequentially administered under a fed condition, each dose per cohort. Participants were fasted overnight for at least 8 hours, and then fed with a light breakfast approximately 30 minutes before Compound 1 dosing. In both Part 1a and 1b, all participants received one single dose of treatment.
Part 2 was a randomized, double-blind, placebo-controlled study that evaluated 14-day multiple ascending oral doses of Compound 1 once daily (OD) or twice daily (BID) regimen under fasted conditions: 10 mg QD, 20 mg QD, 15 mg BID, and 20 mg BID. Participants fasted overnight for at least 8 hours before the morning dose and 2 hours after dosing on Day 1 and Day 14. All other morning doses were administered after an overnight fast and approximately 30 minutes before a breakfast snack. Sentinel dosing approach was followed where two of ten participants in each cohort were dosed the first day (n=1, Compound; n=1, placebo) in advance of the full cohort. The remaining 8 participants from each cohort were randomized to receive either Compound or placebo (randomized 7:1) on the following days with at least 48-hour interval from dosing of the sentinel participants, allowing a safety evaluation at the predicted steady state.
Safety and tolerability were assessed by physical examination, neurological examination, monitoring adverse events (AEs) and potentially clinically significant abnormalities (PCSAs) in clinical laboratory tests (hematology, clinical chemistry, and urinalysis), vital signs (body temperature, blood pressure and heart rate), and ECG parameters (heart rate, RR, PR, QRS, QT, QTcF, QTcB intervals) measured in the standard 12-lead ECG or ECGs extracted from 24-hour Holter ECG data.
Safety population included all participants who received at least one dose of study intervention (Compound 1 or placebo). All safety assessments (AEs, laboratory parameters, vital signs) were based on the review of individual values and were summarized using descriptive statistics. Safety analysis was focused on treatment-emergent period, defined as the time from the first investigational medicinal product (IMP) administration up to the end of study visit (included). AEs were coded according to the Medical Dictionary for Regulatory Activities (MedDRA, version 23.1 in Part 1a and Part 1b; version 24 in Part 2). Severity was graded from Grade 1 to 4 according to the Food and Drug Administration (FDA) Guidance for Industry. Number (%) of participants experiencing TEAEs and potentially clinically significant abnormality (PCSAs) in clinical chemistry, vital signs, and ECGs were summarized by dose level group.

CC(C)(C(=O)N1CCOc2c(C#N)cncc2C1)C(F)F [Compound 1, 4-(3,3-difluoro-2,2-dimethyl-propanoyl)-3,5-dihydro-2H-pyrido[3,4-f] [1,4]oxazepine-9-carbonitrile]
TEAE Eye disorders, participants (Part 1a single 40 mg fasted): 0 n
TEAE Fatigue, participants (Part 1a single 40 mg fasted): 0 n
TEAE General disorders and administration site conditions, participants (Part 1a single 40 mg fasted): 1 n
TEAE Headache, participants (Part 1a single 40 mg fasted): 0 n
TEAE Investigations, participants (Part 1a single 40 mg fasted): 0 n
TEAE Keratitis, participants (Part 1a single 40 mg fasted): 0 n
TEAE Medical device site dermatitis, participants (Part 1a single 40 mg fasted): 0 n
TEAE Musculoskeletal and connective tissue disorders, participants (Part 1a single 40 mg fasted): 1 n
TEAE Myalgia, participants (Part 1a single 40 mg fasted): 1 (16.7) n
TEAE Nervous system disorders, participants (Part 1a single 40 mg fasted): 1 n
TEAE Presyncope, participants (Part 1a single 40 mg fasted): 0 n
TEAE Skin and subcutaneous tissue disorders, participants (Part 1a single 40 mg fasted): 1 n
TEAE Skin irritation, participants (Part 1a single 40 mg fasted): 0 n
TEAE Tachycardia, participants (Part 1a single 40 mg fasted): 0 n
TEAE Thrombophlebitis, participants (Part 1a single 40 mg fasted): 0 n
TEAE Vascular disorders, participants (Part 1a single 40 mg fasted): 0 n
TEAE Ventricular extrasystoles, participants (Part 1a single 40 mg fasted): 1 n
TEAE Vessel puncture site hypoaesthesia, participants (Part 1a single 40 mg fasted): 1 n
TEAE Vessel puncture site pain, participants (Part 1a single 40 mg fasted): 1 n
PCSAs (hematology, clinical chemistry, vital signs, ECG), relevance (Part 1a, all Compound 1 groups): not clinically relevant
Participants with at least one TEAE (Part 1a, all Compound 1 groups, out of 24): 9 participants
SAEs or AESIs (Part 1a, single 10-40 mg fasted): no SAEs or AESIs
ALT increase (one participant, Day 2): 1.5 fold ULN
ALT increase (one participant, Day 7 (end-of-study visit)): 2.4 fold ULN
Participants with at least one TEAE (Part 1b overall, out of 12): 10 participants
Any Grade ≥3 TEAE, participants (Part 1b single 10 mg fed): 0 n
Any TEAE, participants (Part 1b single 10 mg fed): 4 n
Any treatment-emergent AESI, participants (Part 1b single 10 mg fed): 1 n
Any treatment-emergent SAE, participants (Part 1b single 10 mg fed): 0 n
TEAE Alanine aminotransferase increased, participants (Part 1b single 10 mg fed): 1 n
TEAE Back pain, participants (Part 1b single 10 mg fed): 1 n
TEAE Cerebrospinal fluid leakage, participants (Part 1b single 10 mg fed): 1 n
TEAE Coccydynia, participants (Part 1b single 10 mg fed): 0 n
TEAE Constipation, participants (Part 1b single 10 mg fed): 0 n
TEAE Dizziness, participants (Part 1b single 10 mg fed): 0 n
TEAE Gastrointestinal disorders, participants (Part 1b single 10 mg fed): 1 n
TEAE Headache, participants (Part 1b single 10 mg fed): 3 n
TEAE Investigations, participants (Part 1b single 10 mg fed): 1 n
TEAE Musculoskeletal and connective tissue disorders, participants (Part 1b single 10 mg fed): 1 n
TEAE Nausea, participants (Part 1b single 10 mg fed): 1 n
TEAE Nervous system disorders, participants (Part 1b single 10 mg fed): 4 n
TEAE Polyuria, participants (Part 1b single 10 mg fed): 0 n
TEAE Radiculopathy, participants (Part 1b single 10 mg fed): 0 n
TEAE Renal and urinary disorders, participants (Part 1b single 10 mg fed): 0 n
TEAE Vomiting, participants (Part 1b single 10 mg fed): 1 n
Any Grade ≥3 TEAE, participants (Part 1b single 40 mg fed): 1 n
Any TEAE, participants (Part 1b single 40 mg fed): 6 n
Any treatment-emergent AESI, participants (Part 1b single 40 mg fed): 0 n
Any treatment-emergent SAE, participants (Part 1b single 40 mg fed): 1 n
TEAE Alanine aminotransferase increased, participants (Part 1b single 40 mg fed): 0 n
TEAE Back pain, participants (Part 1b single 40 mg fed): 2 n
TEAE Cerebrospinal fluid leakage, participants (Part 1b single 40 mg fed): 3 (50.0) n
TEAE Coccydynia, participants (Part 1b single 40 mg fed): 1 n
TEAE Constipation, participants (Part 1b single 40 mg fed): 1 n
TEAE Dizziness, participants (Part 1b single 40 mg fed): 1 n
TEAE Gastrointestinal disorders, participants (Part 1b single 40 mg fed): 2 n
TEAE Headache, participants (Part 1b single 40 mg fed): 4 n
TEAE Investigations, participants (Part 1b single 40 mg fed): 0 n
TEAE Musculoskeletal and connective tissue disorders, participants (Part 1b single 40 mg fed): 2 n
TEAE Nausea, participants (Part 1b single 40 mg fed): 1 n
TEAE Nervous system disorders, participants (Part 1b single 40 mg fed): 5 n
TEAE Polyuria, participants (Part 1b single 40 mg fed): 1 n
TEAE Radiculopathy, participants (Part 1b single 40 mg fed): 1 n
TEAE Renal and urinary disorders, participants (Part 1b single 40 mg fed): 1 n
TEAE Vomiting, participants (Part 1b single 40 mg fed): 1 n
PCSAs (vital signs, ECG), relevance (Part 1b, all Compound 1 groups): not clinically relevant
Any Grade ≥3 TEAE, participants (Part 2 10 mg QD 14 days): 0 n
Any TEAE, participants (Part 2 10 mg QD 14 days): 4 n
Any treatment-emergent AESI, participants (Part 2 10 mg QD 14 days): 0 n
Any treatment-emergent SAE, participants (Part 2 10 mg QD 14 days): 0 n
TEAE Nervous system disorders, participants (Part 2 10 mg QD, out of 8): 2 participants
Any Grade ≥3 TEAE, participants (Part 2 15 mg BID 14 days): 0 n
Any TEAE, participants (Part 2 15 mg BID 14 days): 6 n
Any treatment-emergent AESI, participants (Part 2 15 mg BID 14 days): 1 n
Any treatment-emergent SAE, participants (Part 2 15 mg BID 14 days): 0 n
ALT increase (AESI) (Part 2 15 mg BID, one participant, Day 9): 2.29 ULN
ALT increase (AESI), highest (Part 2 15 mg BID, one participant, Day 15, 24 hours post last dosing): 2.71 ULN
TEAE Nervous system disorders, participants (Part 2 15 mg BID, out of 8): 1 participants
Any Grade ≥3 TEAE, participants (Part 2 20 mg BID 14 days): 0 n
Any TEAE, participants (Part 2 20 mg BID 14 days): 4 n
Any treatment-emergent AESI, participants (Part 2 20 mg BID 14 days): 0 n
Any treatment-emergent SAE, participants (Part 2 20 mg BID 14 days): 0 n
TEAE Nervous system disorders, participants (Part 2 20 mg BID, out of 8): 2 participants
Any Grade ≥3 TEAE, participants (Part 2 20 mg QD 14 days): 0 n
Any TEAE, participants (Part 2 20 mg QD 14 days): 3 n
Any treatment-emergent AESI, participants (Part 2 20 mg QD 14 days): 0 n
Any treatment-emergent SAE, participants (Part 2 20 mg QD 14 days): 0 n
TEAE Nervous system disorders, participants (Part 2 20 mg QD, out of 8): 1 participants
SAE and severe TEAE (Grade ≥3) (Part 2, 14-day repeated doses): no serious adverse event (SAE) and no severe treatment-emergent adverse event
PCSAs for vital signs and ECG parameters, relevance (Part 2, all groups): not clinically meaningful
Safety and tolerability, overall (single dose up to 40 mg fasted and fed, up to 20 mg BID for 14 days): safe and well tolerated
